The results in this text go back to US11479556B1, “Bifunctional compounds for degrading BTK via ubiquitin proteosome pathway” (NURIX THERAPEUTICS, INC., priority 2018, dated 2022).

One may read the DC50 as the concentration at which degradation of the target reaches its halfway point. A low value points to degradation at low concentration.

SMILES strings stand for the structures.

The assay deals with T1, BTK (Homo sapiens, UniProt Q06187).
T1 construct: endogenous in cells; host or cells: TMD8 cells
T1 sequence (Q06187 whole entry): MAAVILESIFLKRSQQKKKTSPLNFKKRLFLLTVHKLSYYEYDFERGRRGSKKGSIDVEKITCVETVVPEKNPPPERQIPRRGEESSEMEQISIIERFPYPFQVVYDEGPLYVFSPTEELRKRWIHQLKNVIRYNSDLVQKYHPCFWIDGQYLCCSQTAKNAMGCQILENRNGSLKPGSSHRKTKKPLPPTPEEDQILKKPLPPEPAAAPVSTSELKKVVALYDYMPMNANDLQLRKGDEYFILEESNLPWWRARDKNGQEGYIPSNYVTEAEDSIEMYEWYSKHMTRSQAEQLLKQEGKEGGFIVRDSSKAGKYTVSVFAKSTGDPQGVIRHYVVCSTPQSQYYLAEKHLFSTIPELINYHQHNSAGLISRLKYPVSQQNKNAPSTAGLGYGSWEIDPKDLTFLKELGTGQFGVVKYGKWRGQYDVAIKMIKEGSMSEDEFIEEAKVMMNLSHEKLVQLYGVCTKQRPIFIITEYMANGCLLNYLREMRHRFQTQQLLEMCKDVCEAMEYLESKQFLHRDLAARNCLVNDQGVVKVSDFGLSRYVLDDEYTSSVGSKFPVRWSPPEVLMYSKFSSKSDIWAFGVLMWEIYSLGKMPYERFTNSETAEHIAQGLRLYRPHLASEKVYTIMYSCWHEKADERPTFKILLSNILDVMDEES
Put plainly: Cellular BTK HTRF assay (BTK degradation) in TMD8 cells. Format: cell-based. Particulars: four hours incubation, Total-BTK HTRF relative to DMSO-treated cells. As to the method: Example 66: BTK Degradation Assay
TMD8 cells were obtained from Tokyo Medical and Dental University and were grown in alpha-MEM (Fisher 12571063) supplemented with 10% heat-inactivated FBS (Corning Premium Fetal Bovine Serum from Fisher, MT35015CV).
Compounds of the present invention were added to 50,000 TMD8 cells in round-bottom 96 well plates with a final DMSO concentration of […] and were incubated at 37° C. 5% CO2 for four hours. BTK levels were determined using Cisbio Total-BTK HTRF ([…] Time-Resolved Fluorescence) kit (63ADK064PEG) according to manufacturer's protocol. Briefly, cells were incubated in 1× supplied lysis buffer for 30 minutes. In an opaque white low volume 96 well plate (Cisbio, 66PL96005), cell lysate was combined with two different specific BTK antibodies, one conjugated with Eu^3+-Cryptate FRET donor and one conjugated with d2 FRET acceptor. Assay controls include wells containing cell lysate with only the Eu^3+-Cryptate FRET donor antibody and wells containing both HTRF antibodies and lysis buffer without cells or control lysate provided by Cisbio. HTRF ratio was calculated as (acceptor signal at 665 nm/donor signal at 620 nm)×10^4. Background HTRF levels were determined from the control well containing the donor, but no acceptor, antibody. Background HTRF levels were subtracted from all samples. Readouts were reported as HTRF levels relative to HTRF levels of DMSO-treated cells. Four-parameter non-linear regressions were performed in GraphPad Prism 7.02 to obtain DC50 values. DC50 values are provided in Table 3, wherein A<5.0 nM, 5.0 nM≤B≤15 nM, and 15 nM<C.
Background: TR-FRET usually uses a lanthanide donor and a delayed reading to cut background.
`CN1CCN([C@@H]2CCCN(c3cnc(C(N)=O)c(Nc4ccc(C(=O)NCCOCCOCCOCCCc5cccc6c5CN(C5CCC(=O)NC5=O)C6=O)cc4)n3)C2)C1=O` (stereo partly shown) [Compound 2]: the DC50 was above 15 nM.
The compound `CN1CCN([C@@H]2CCCN(c3cnc(C(N)=O)c(Nc4ccc(C(=O)NCCOCCOCCOCCNc5cccc6c5C(=O)N(C5CCC(=O)NC5=O)C6=O)cc4)n3)C2)C1=O` (stereo partly shown) [Compound 3] came in with a DC50 above 15 nM.
Consider `CN1CCN([C@@H]2CCCN(c3cnc(C(N)=O)c(Nc4ccc(OCCCNC(=O)CCCN5CCN(c6ccc7c(c6)C(=O)N(C6CCC(=O)NC6=O)C7=O)CC5)cc4)n3)C2)C1=O` (stereo partly shown) [Compound 4], for which the DC50 was above 15 nM.
To `CN1CCN([C@@H]2CCCN(c3cnc(C(N)=O)c(Nc4ccc(OCCCNC(=O)[C@H]5C[C@@H](OCCCc6cccc7c6C(=O)N(C6CCC(=O)NC6=O)C7=O)C5)cc4)n3)C2)C1=O` (stereo partly shown) [Compound 5] belongs above 15 nM; to `CN1CCN([C@@H]2CCCN(c3cnc(C(N)=O)c(Nc4ccc(OCCCNC(=O)CCCc5cccc6c5CN(C5CCC(=O)NC5=O)C6=O)cc4)n3)C2)C1=O` (stereo partly shown) [Compound 6], above 15 nM; to `CN1CCN([C@@H]2CCCN(c3cnc(C(N)=O)c(Nc4ccc(C5(C)CCN(C(=O)CCCc6nnc(Nc7cccc8c7CN(C7CCC(=O)NC7=O)C8=O)o6)CC5)cc4)n3)C2)C1=O` (stereo partly shown) [Compound 7], above 15 nM.
The compound `CN1CCN([C@@H]2CCCN(c3cnc(C(N)=O)c(Nc4ccc(C(=O)NCCCCNc5cccc6c5C(=O)N(C5CCC(=O)NC5=O)C6=O)cc4)n3)C2)C1=O` (stereo partly shown) [Compound 8] came in with a DC50 of 5 to 15 nM.
Compound `CN1CCN([C@@H]2CCCN(c3cnc(C(N)=O)c(Nc4ccc(C(=O)NCCOCCc5cccc6c5CN(C5CCC(=O)NC5=O)C6=O)cc4)n3)C2)C1=O` (stereo partly shown) [Compound 9] registered a DC50 above 15 nM.
With `CN1CCN([C@@H]2CCCN(c3cnc(C(N)=O)c(Nc4ccc(C5(C)CCN(C(=O)CCOCCCc6ccc7c(c6)C(=O)N(C6CCC(=O)NC6=O)C7=O)CC5)cc4)n3)C2)C1=O` (stereo partly shown) [Compound 10], the DC50 is 5 to 15 nM.
On to `CN1CCN([C@@H]2CCCN(c3cnc(C(N)=O)c(Nc4ccc(C5(C)CCN(C(=O)CCCN6CCN(c7ccc8c(c7)C(=O)N(C7CCC(=O)NC7=O)C8=O)CC6)CC5)cc4)n3)C2)C1=O` (stereo partly shown) [Compound 11], for which the DC50 was below 5 nM.
`CN1CCN([C@@H]2CCCN(c3cnc(C(N)=O)c(Nc4ccc(N5CCN(C(=O)CN6CCN(CCc7cccc8c7CN(C7CCC(=O)NC7=O)C8=O)CC6)CC5)cc4)n3)C2)C1=O` (stereo partly shown) [Compound 12] displayed a DC50 of 5 to 15 nM.
As to `CN1CCN([C@@H]2CCCN(c3cnc(C(N)=O)c(Nc4ccc(C5(C)CCN(C(=O)CN6CCN(CCc7cccc8c7CN(C7CCC(=O)NC7=O)C8=O)CC6)CC5)cc4)n3)C2)C1=O` (stereo partly shown) [Compound 13], the DC50 lay within 5 to 15 nM.
The compound `CN1CCN([C@@H]2CCCN(c3cnc(C(N)=O)c(Nc4ccc(N5CCN(CCCc6cccc7c6CN(C6CCC(=O)NC6=O)C7=O)CC5)cc4)n3)C2)C1=O` (stereo partly shown) [Compound 15] registered a DC50 below 5 nM.
`CN1CCN([C@@H]2CCCN(c3cnc(C(N)=O)c(Nc4ccc(C5(C)CCN(CCCc6cccc7c6CN(C6CCC(=O)NC6=O)C7=O)CC5)cc4)n3)C2)C1=O` (stereo partly shown) [Compound 16] returned a DC50 of 5 to 15 nM.
Take `CN1CCN([C@@H]2CCCN(c3cnc(C(N)=O)c(Nc4ccc(C5(C)CCN(CCOCCCc6cccc7c6C(=O)N(C6CCC(=O)NC6=O)C7=O)CC5)cc4)n3)C2)C1=O` (stereo partly shown) [Compound 18]: the DC50 fell in the range of 5 to 15 nM.
The compound `CN1CCN([C@@H]2CCCN(c3cnc(C(N)=O)c(Nc4ccc(N5CCN(C(=O)CCOCCNc6cccc7c6C(=O)N(C6CCC(=O)NC6=O)C7=O)CC5)cc4)n3)C2)C1=O` (stereo partly shown) [Compound 19] registered a DC50 of 5 to 15 nM.
On to `CN1CCN([C@@H]2CCCN(c3cnc(C(N)=O)c(Nc4ccc(C5(C)CCN(C(=O)CN6CCN(CCCc7cccc8c7CN(C7CCC(=O)NC7=O)C8=O)CC6)CC5)cc4)n3)C2)C1=O` (stereo partly shown) [Compound 20], for which the DC50 is below 5 nM.
On to `CN1CCN([C@@H]2CCCN(c3cnc(C(N)=O)c(Nc4ccc(C5(C)CCN(CCCCc6cccc7c6CN(C6CCC(=O)NC6=O)C7=O)CC5)cc4)n3)C2)C1=O` (stereo partly shown) [Compound 21], for which the DC50 fell in the range of 5 to 15 nM.
To `CN1CCN([C@@H]2CCCN(c3cnc(C(N)=O)c(Nc4ccc(C5(C)CCN(C(=O)CN6CCN(CCCc7cccc8c7C(=O)N(C7CCC(=O)NC7=O)C8=O)CC6)CC5)cc4)n3)C2)C1=O` (stereo partly shown) [Compound 22] belongs 5 to 15 nM.
In the case of `CN1CCN([C@@H]2CCCN(c3cnc(C(N)=O)c(Nc4ccc(C5CCN(C(=O)CCCCc6cccc7c6CN(C6CCC(=O)NC6=O)C7=O)CC5)cc4)n3)C2)C1=O` (stereo partly shown) [Compound 23], the DC50 was 5 to 15 nM.
Compound `CN1CCN([C@@H]2CCCN(c3cnc(C(N)=O)c(Nc4ccc(C5CCN(C(=O)CCOCCOCCOCCNc6cccc7c6C(=O)N(C6CCC(=O)NC6=O)C7=O)CC5)cc4)n3)C2)C1=O` (stereo partly shown) [Compound 24] gave a DC50 of 5 to 15 nM.
To `CN1CCN([C@@H]2CCCN(c3cnc(C(N)=O)c(Nc4ccc(C5(C)CCN(C(=O)CCCCc6cccc7c6CN(C6CCC(=O)NC6=O)C7=O)CC5)cc4)n3)C2)C1=O` (stereo partly shown) [Compound 26] belongs 5 to 15 nM; to `CN1CCN([C@@H]2CCCN(c3cnc(C(N)=O)c(Nc4ccc(C5(C)CCN(C(=O)CCOCCOCCOCCNc6cccc7c6C(=O)N(C6CCC(=O)NC6=O)C7=O)CC5)cc4)n3)C2)C1=O` (stereo partly shown) [Compound 27], 5 to 15 nM.
For the compound `CN1CCN([C@@H]2CCCN(c3cnc(C(N)=O)c(Nc4ccc(C5(C)CCN(C(=O)CCOCCNc6cccc7c6C(=O)N(C6CCC(=O)NC6=O)C7=O)CC5)cc4)n3)C2)C1=O` (stereo partly shown) [Compound 28], the DC50 lay within 5 to 15 nM.
Compound `CN1CCN([C@@H]2CCCN(c3cnc(C(N)=O)c(Nc4ccc(C5CCN(C[C@@H]6CCCN(c7ccc8c(c7)C(=O)N(C7CCC(=O)NC7=O)C8=O)C6)CC5)cc4)n3)C2)C1=O` (stereo partly drawn) [Compound 32, 3-((4-(1-(((3S)-1-(2-(2,6-dioxopiperidin-3-yl)-1,3-dioxoisoindolin-5-yl)piperidin-3-yl)methyl)piperidin-4-yl)phenyl)amino)-5-((R)-3-(3-methyl-2-oxoimidazolidin-1-yl)piperidin-1-yl)pyrazine-2-carboxamide] registered a DC50 below 5 nM.
To `CN1CCN([C@@H]2CCCN(c3cnc(C(N)=O)c(Nc4ccc(N5CC6(CN(CCCc7cccc8c7CN(C7CCC(=O)NC7=O)C8=O)C6)C5)cc4)n3)C2)C1=O` (stereo partly shown) [Compound 33] belongs below 5 nM; to `CN1CCN([C@@H]2CCCN(c3cnc(C(N)=O)c(Nc4ccc(C5CN(C[C@H]6CCN(c7ccc8c(c7)C(=O)N(C7CCC(=O)NC7=O)C8=O)C6)C5)cc4)n3)C2)C1=O` (stereo partly shown) [Compound 35], below 5 nM; to `CN1CCN([C@@H]2CCCN(c3cnc(C(N)=O)c(Nc4ccc(C5CN(CCCCc6cccc7c6CN(C6CCC(=O)NC6=O)C7=O)C5)cc4)n3)C2)C1=O` (stereo partly shown) [Compound 36], 5 to 15 nM.
Compound `CN1CCN([C@@H]2CCCN(c3cnc(C(N)=O)c(Nc4ccc(C5CCN(C[C@@H]6[C@H]7CN(c8ccc9c(c8)C(=O)N(C8CCC(=O)NC8=O)C9=O)C[C@@H]67)CC5)cc4)n3)C2)C1=O` (stereo partly shown) [Compound 39] yielded a DC50 below 5 nM.
The compound `CN1CCN([C@@H]2CCCN(c3cnc(C(N)=O)c(Nc4ccc(N5CCN(CCC6CCN(c7ccc8c(c7)C(=O)N(C7CCC(=O)NC7=O)C8=O)CC6)CC5)cc4)n3)C2)C1=O` (stereo partly shown) [Compound 40] had a DC50 below 5 nM.
Regarding `CN1CCN([C@@H]2CCCN(c3cnc(C(N)=O)c(Nc4ccc(C5CCN(CCC6CCN(c7ccc8c(c7)C(=O)N(C7CCC(=O)NC7=O)C8=O)CC6)CC5)cc4)n3)C2)C1=O` (stereo partly shown) [Compound 41], the DC50 is below 5 nM.
